The source of these data is patent US8906916B2, “Pyrimidine derivatives as FAK inhibitors” (Merck Patent GmbH, priority 2010, dated 2014).

As usually defined, the IC50 is the concentration at which inhibition is half-maximal. Low readings indicate greater potency in that assay, high ones weaker potency in that assay.

Chain of focal adhesion kinase (FAK) (Q05397 whole entry): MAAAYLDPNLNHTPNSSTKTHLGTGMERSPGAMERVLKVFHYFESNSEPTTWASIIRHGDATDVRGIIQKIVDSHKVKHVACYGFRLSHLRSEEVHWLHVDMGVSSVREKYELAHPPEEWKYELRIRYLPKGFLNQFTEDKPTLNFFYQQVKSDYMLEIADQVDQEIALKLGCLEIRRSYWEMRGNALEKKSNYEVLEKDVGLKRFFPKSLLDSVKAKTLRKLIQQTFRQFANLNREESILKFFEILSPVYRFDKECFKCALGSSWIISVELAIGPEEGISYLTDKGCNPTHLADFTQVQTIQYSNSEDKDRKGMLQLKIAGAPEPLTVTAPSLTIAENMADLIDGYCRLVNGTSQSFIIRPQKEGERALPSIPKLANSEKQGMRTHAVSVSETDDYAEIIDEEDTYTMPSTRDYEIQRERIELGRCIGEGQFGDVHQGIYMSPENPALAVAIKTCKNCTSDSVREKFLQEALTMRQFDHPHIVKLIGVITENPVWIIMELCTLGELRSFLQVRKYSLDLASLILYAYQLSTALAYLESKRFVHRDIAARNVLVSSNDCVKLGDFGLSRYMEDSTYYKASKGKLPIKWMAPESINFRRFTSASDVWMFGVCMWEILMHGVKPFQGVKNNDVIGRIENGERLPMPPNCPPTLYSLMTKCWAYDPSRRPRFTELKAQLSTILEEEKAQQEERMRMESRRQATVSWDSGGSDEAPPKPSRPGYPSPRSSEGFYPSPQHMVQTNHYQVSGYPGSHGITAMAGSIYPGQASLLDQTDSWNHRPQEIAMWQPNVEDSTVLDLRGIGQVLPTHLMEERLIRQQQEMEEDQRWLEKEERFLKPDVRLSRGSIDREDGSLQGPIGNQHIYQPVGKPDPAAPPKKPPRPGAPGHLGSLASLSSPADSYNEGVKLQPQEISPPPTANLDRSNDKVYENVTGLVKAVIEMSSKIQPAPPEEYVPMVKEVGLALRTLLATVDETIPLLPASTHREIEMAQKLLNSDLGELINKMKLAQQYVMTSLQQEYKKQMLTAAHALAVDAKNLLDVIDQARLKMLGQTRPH
T1 sequence (Q05397 whole entry): as above

The first assay deals with focal adhesion kinase (FAK) (Homo sapiens, UniProt Q05397). Kind of assay: FAK kinase assay (autophosphorylation), 384-well flashplate. Conditions: FAK inhibition, enzymatic autophosphorylation assay, 1 μM ATP. The assay is classed as biochemical. On the procedure:
FAK Kinase Assay (Autophosphorylation)
The focal adhesion kinase (FAK) assay is carried out either as a 384-well flashplate assay (for example for Topcount measurements) or as a 384-well image flashplate assay (for LEADseeker measurements). 2 nM FAK, 400 nM biotinylated substrate (His-TEV-hsFAK (31 686)(K454R) x biotin) and 1 μM ATP (to which […] of 33P-ATP/well has been added) are incubated at 30° C. for 2 hours with or without test compound in a total volume of 50 μl (60 mM Hepes, 10 mM MgCl2, 1.2 mM dithiothreitol, 0.02% of Brij35, 0.1% of BSA, pH 7.5). The reaction is stopped using 25 μl of 200 mM EDTA. After 30 min at 30° C., the liquid is removed, and each well is washed three times with 100 μl of 0.9% sodium chloride solution. Non-specific reaction is determined in the presence of 1 μM EMD 1076893/0(PF-562271). The radioactivity is measured using Topcount (in the case of the use of flashplates) or using LEADseeker (in the case of the use of image flashplates). Results (for example IC50 values) are calculated using, for example, a Symyx Assay Explorer.
Turning to `CN(c1ccccc1CCc1ccnc(Nc2ccc3c(c2)CCC(=O)N3)n1)S(C)(=O)=O` [A2, N-methyl-N-(2-{2-[2-(2-oxo-1,2,3,4-tetrahydroquinolin-6-ylamino)pyrimidin-4-yl]ethyl}phenyl)methanesulfonamide], the IC50 was < 0.3 µM.
As to `CN(c1ncccc1CCc1ccnc(Nc2ccc(N3CCCC3=O)cc2)n1)S(C)(=O)=O` [A39], the IC50 lay in the range of 0.3 to 3 µM.
Same read-out and setting: the value for `CN(c1ccccc1CCc1ccnc(Nc2ccc(S(C)(=O)=O)cc2)n1)S(C)(=O)=O` [A1, N-(2-{2-[2-(4-methanesulfonylphenylamino)pyrimidin-4-yl]ethyl}-phenyl)-N-methylmethanesulfonamide] was 3 to 50 µM; that for `N#CC1(c2cc(F)ccc2CCc2ccnc(Nc3ccc4c(c3)CC(=O)N4)n2)CCC1` [A46] was 0.3 to 3 µM.
In the case of `CS(=O)(=O)c1cccc(CCc2ccnc(Nc3ccc4c(c3)CCC(=O)N4)n2)c1` [A3], the IC50 is 3 to 50 µM.
As for `CN(c1ccccc1CCc1ccnc(Nc2ccc3c(c2)CC(=O)N3)n1)S(C)(=O)=O` [A5], the 50% inhibitory concentration (IC50) is < 0.3 µM.
The same measure, in the same setting: next, `N#CC1(c2ccc(F)cc2CCc2ccnc(Nc3ccc4c(c3)CC(=O)N4)n2)CCC1` [A45]: < 0.3 µM.
As for `CN(c1ccccc1CCc1ccnc(Nc2ccc(NC(=O)c3cccnc3)cc2)n1)S(C)(=O)=O` [A34], the half-maximal inhibitory concentration (IC50) was < 0.3 µM.
Regarding `CN(c1ccccc1CCc1ccnc(Nc2ccc(N3CCOCC3=O)cc2)n1)S(C)(=O)=O` [A33], the half-inhibitory concentration (IC50) lay in the range of 0.3 to 3 µM.
With `CN(c1ncccc1CCc1ccnc(Nc2ccc(NC(=O)c3cccnc3)cc2)n1)S(C)(=O)=O` [A40], the IC50 was in the range of 0.3 to 3 µM.
On the same count and under the same terms, next, `CN(c1ncccc1CCc1ccnc(Nc2cccc(C#N)c2)n1)S(C)(=O)=O` [A22]: 3 to 50 µM; `O=C1CCc2cc(Nc3ncc(C(F)(F)F)c(CCc4ccccc4)n3)ccc2N1` [A103]: 0.3 to 3 µM; `N#CCc1ccc(F)cc1CCc1ccnc(Nc2ccc3c(c2)CC(=O)N3)n1` [A11]: 0.3 to 3 µM.
The same measure, in the same setting: next, `N#CC1(c2ncccc2CCc2ccnc(Nc3ccc4c(c3)CC(=O)N4)n2)CNC1` [A16, 3-(3-{2-[2-(2-oxo-2,3-dihydro-1H-indol-5-ylamino)pyrimidin-4-yl]ethyl}pyridin-2-yl)azetidine-3-carbonitrile]: 3 to 50 µM; `O=C1Cc2cc(Nc3ncc(C(F)(F)F)c(CCc4ccccc4)n3)ccc2N1` [A102]: 0.3 to 3 µM; `N#CCc1ccccc1CCc1ccnc(Nc2ccc3c(c2)CC(=O)N3)n1` [A9]: 0.3 to 3 µM.
Take `CN(c1ncccc1CCc1ccnc(Nc2ccc3c(c2)CCC(=O)N3)n1)S(C)(=O)=O` [A7]: the half-inhibitory concentration (IC50) is 0.3 to 3 µM.
Same read-out and setting: the value for `CN(c1ncccc1CCc1ccnc(Nc2ccc(N3CCOCC3=O)cc2)n1)S(C)(=O)=O` [A41] was 0.3 to 3 µM; that for `CN(c1ncccc1CCc1ccnc(Nc2ccc(N3C(=O)c4ccccc4C3=O)cc2)n1)S(C)(=O)=O` [A43] was 0.3 to 3 µM; that for `CN(c1ccccc1CCc1ccnc(Nc2cc(Cl)c(N3CCCC3=O)c(Cl)c2)n1)S(C)(=O)=O` [A36] was 0.3 to 3 µM.
Compound `CN(c1ncccc1CCc1ccnc(Nc2ccc3c(c2)CC(=O)N3)n1)S(C)(=O)=O` [A6] came in with a half-inhibitory concentration (IC50) of 0.3 to 3 µM.
With `CNC(=O)Cc1ccc(Nc2nccc(CCc3ccccc3N(C)S(C)(=O)=O)n2)cc1` [A32], the concentration for half-maximal inhibition (IC50) fell in the range of 0.3 to 3 µM.
The same measure, in the same setting: the value for `CN(c1ccccc1CCc1ccnc(Nc2ccc3sc(=O)[nH]c3c2)n1)S(C)(=O)=O` [A30] was 0.3 to 3 µM; that for `CN(c1ccccc1CCc1ccnc(Nc2ccc(N3C(=O)c4ccccc4C3=O)cc2)n1)S(C)(=O)=O` [A38] was 0.3 to 3 µM.
On the same count and under the same terms, next, `CN(c1ncccc1CCc1ccnc(Nc2ccc3c(c2)n(C)c(=O)n3C)n1)S(C)(=O)=O` [A25]: 0.3 to 3 µM.
Take `CN(c1ccccc1CCc1ccnc(Nc2ccc3[nH]c(=O)oc3c2)n1)S(C)(=O)=O` [A27]: the concentration for half-maximal inhibition (IC50) was in the range of 0.3 to 3 µM.
On the same count and under the same terms, the value for `CN(c1ccccc1CCc1ccnc(Nc2ccc(N3CCCC3=O)cc2)n1)S(C)(=O)=O` [A35] was 0.3 to 3 µM; that for `CC(=O)N1CCc2cc(Nc3nccc(CCc4ccccc4N(C)S(C)(=O)=O)n3)ccc21` [A31] was < 0.3 µM.
Same read-out and setting: next, `CN(c1ccccc1CCc1ccnc(Nc2cccc(C#N)c2)n1)S(C)(=O)=O` [A28]: 0.3 to 3 µM.
Same read-out and setting: the value for `N#CC1(c2ccccc2CCc2ccnc(Nc3ccc4c(c3)CC(=O)N4)n2)CCC1` [A13] was 0.3 to 3 µM; that for `CN1C(=O)Cc2cc(Nc3nccc(CCc4cccnc4N(C)S(C)(=O)=O)n3)ccc21` [A21] was 0.3 to 3 µM; that for `CN(c1ccccc1CCc1ccnc(Nc2ccc(F)c(C#N)c2)n1)S(C)(=O)=O` [A29] was 3 to 50 µM.
The compound `O=C1CCc2cc(Nc3ncc(Br)c(CCc4ccccc4)n3)ccc2N1` [A101] came in with a half-inhibitory concentration (IC50) of 0.3 to 3 µM.
As for `Cc1cnc(N(C)S(C)(=O)=O)c(CCc2ccnc(Nc3ccc4c(c3)CC(=O)N4)n2)c1` [A44], the half-inhibitory concentration (IC50) is < 0.3 µM.
`CN(c1ncccc1CCc1ccnc(Nc2ccc3[nH]c(=O)oc3c2)n1)S(C)(=O)=O` [A20] displayed a half-maximal inhibitory concentration (IC50) of 0.3 to 3 µM.

Another assay concerns the target T1, FAK (Homo sapiens, UniProt Q05397).
T1 construct: HT29 cells are sown out with 30,000 cells per well; endogenous in cells; host or cells: HT29
Kind of assay: Cellular testing of FAK kinase inhibitors: autophosphorylation of FAK at tyrosine 397 in HT29 cells (Luminex). It counts as cell-based. Conditions: FAK inhibition, P-Y397-FAK in HT29 cells, 30 min, serum-free. As to the method:
Method for the Cellular Testing of FAK Kinase Inhibitors
For analysis of the cellular activity of FAK, the extent of autophosphorylation of FAK at tyrosine 397 is determined with the aid of a Luminex-based assay in the 96-well format. HT29 cells are sown out with 30,000 cells per well in 100 μl of medium (90% of DMEM/10% of FCS) and incubated on the following day for 30 min with a serial dilution of the test substance (7 concentrations) under serum-free conditions. The cells are subsequently lysed using 90 μl of lysis buffer (20 mM tris/HCl pH 8.0, 150 mM NaCl, 1% of NP40, 10% of glycerol, 1% of phosphatase inhibitor II, 20 mM p-glycerol phosphate, 0.1% of protease inhibitor cocktail III, 0.01% of benzonase) per well, and the lysates are separated off from insoluble cell constituents by means of centrifugation through a 96-well filter plate (0.65 μm). The lysates are incubated at 4° C. overnight with shaking with Luminex beads to which an anti-total FAK antibody is coupled. The detection is carried out on the following day by addition of a P-Y397-FAK antibody and a species-specific PE-labelled secondary antibody. P-Y397-FAK is detected by measurement in the Luminex100 instrument by determination of 100 events per cavity in a measurement time of 60 sec. As pharmacological blank, the signals obtained from cells treated with 30 μM of an FAK reference inhibitor are subtracted from all other batches. The control value used for maximum phosphorylation of FAK at Y397 are the signals from cells treated only with the solvent (0.3% of DMSO). The values of the batches treated with test substance are calculated therefrom as percent of control, and IC50 values are determined by means of Assay Explorer.
Compound `CN(c1ccccc1CCc1ccnc(Nc2ccc3c(c2)CCC(=O)N3)n1)S(C)(=O)=O` [A2, N-methyl-N-(2-{2-[2-(2-oxo-1,2,3,4-tetrahydroquinolin-6-ylamino)pyrimidin-4-yl]ethyl}phenyl)methanesulfonamide] registered a half-maximal inhibitory concentration (IC50) of 3 to 50 µM.
On the same count and under the same terms, the value for `CN(c1ccccc1CCc1ccnc(Nc2ccc(NC(=O)c3cccnc3)cc2)n1)S(C)(=O)=O` [A34] was 0.3 to 3 µM; that for `CN(c1ncccc1CCc1ccnc(NCc2ccc(=O)[nH]n2)n1)S(C)(=O)=O` [A24] was 3 to 50 µM.
On to `CN(c1ncccc1CCc1ccnc(Nc2ccc3c(c2)n(C)c(=O)n3C)n1)S(C)(=O)=O` [A25], for which the IC50 fell in the range of 3 to 50 µM.
Turning to `CN(c1ccccc1CCc1ccnc(Nc2ccc(N3CCCCC3=O)c(C#N)c2)n1)S(C)(=O)=O` [A37], the IC50 was in the range of 0.3 to 3 µM.
`CC(=O)N1CCc2cc(Nc3nccc(CCc4ccccc4N(C)S(C)(=O)=O)n3)ccc21` [A31] returned a concentration for half-maximal inhibition (IC50) of 3 to 50 µM.
